The values below are quoted from earlier work in patent publication US8974824B2, “Lanthanum composition” (Mylan Laboratories Ltd., priority 2008, dated 2015).

For the series the following is noted: pH range of 3 to 5 in gastric fluid; Lanthanum in two-fold molar excess to phosphate.

On to `[La]` [Lanthanum], for which the available phosphate bound entry is on record as “approximately 97%”.
